# Laboratory results as given in ChEMBL document CHEMBL1201862, “PubChem BioAssay data set” (2004).
# Calls of active or inactive are those of the source.
# Test system: Streptococcus sp. 'group A'
# Assay: Streptococcus pyogenes SK(-)GAS viability under kanamycin – luminescence, BacTiterGlo, confirmation, counter-screen for streptokinase expression inhibitor project, dose response (AID 1900)
# Type: functional, organism-based
# Conditions: Streptococcus sp. 'group A'
row,SMILES,EC50
1,Cc1ccc2[nH]c(SCC(=O)c3ccc(Cl)s3)nc2c1,> 150 µM (not active)
2,CCC(=O)N1N/C(=C2/C(=O)NC(=O)N(CCc3ccccc3)C2=O)CC1c1ccc(OC)c(OC)c1 (stereo unspecified),1.4 µM (active)

# Target: T1, Heat shock factor protein 1 (Mus musculus, UniProt P38532)
# T1 sequence (P38532 whole entry): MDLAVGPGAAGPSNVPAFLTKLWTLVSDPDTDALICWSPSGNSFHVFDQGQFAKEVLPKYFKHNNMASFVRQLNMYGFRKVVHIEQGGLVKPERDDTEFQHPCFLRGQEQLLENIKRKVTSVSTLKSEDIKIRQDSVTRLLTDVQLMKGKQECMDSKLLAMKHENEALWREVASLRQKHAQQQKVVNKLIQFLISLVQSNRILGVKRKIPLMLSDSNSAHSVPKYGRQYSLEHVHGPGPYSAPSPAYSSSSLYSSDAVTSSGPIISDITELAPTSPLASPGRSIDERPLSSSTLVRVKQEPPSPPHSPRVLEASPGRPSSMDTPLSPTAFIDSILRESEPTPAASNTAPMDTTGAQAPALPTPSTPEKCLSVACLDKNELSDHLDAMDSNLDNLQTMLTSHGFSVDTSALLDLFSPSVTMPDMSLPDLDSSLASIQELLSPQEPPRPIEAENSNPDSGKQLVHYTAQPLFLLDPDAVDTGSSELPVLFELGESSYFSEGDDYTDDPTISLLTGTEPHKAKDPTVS
# Assay: decrease of HSF1-responsive luciferase luminescence – cell-based, NIH3T3, dose retest, confirmation (AID 2382);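 also: NIH3T3 fibroblasts with HSF1-driven luciferase reporter stressed by proteasome inhibitor MG132; luminescence from HSF1-driven luciferase expression after 8 hours of MG132 stress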
# Type: functional
# Conditions: not given
row,SMILES,EC50
1,N#C/C(=C/c1cc(Br)cs1)C(=O)NCC1CCCO1 (stereo unspecified),> 195 µM (not active)
2,Cc1cccc(C)c1NC(=O)CN1C(=O)NC(C)(CCc2ccccc2)C1=O (stereo unspecified),> 195 µM (not active)
3,Cc1nc([N+](=O)[O-])cn1-c1ccc(N)cc1,> 195 µM (not active)
4,CC(=O)Nc1ccc(NC(=O)CSc2cn(CC(=O)N3CCOCC3)c3ccccc23)cc1,> 195 µM (not active)
5,O=C(NCc1ccccc1)[C@]1(C(F)(F)F)C[C@H](CCc2ccccc2)CCCO1,> 195 µM (not active)
6,CC(=O)c1cnn(-c2c(Cl)cc(Cl)cc2Cl)c1C,> 195 µM (not active)
7,CCN(CC)S(=O)(=O)c1cccc(-c2nnc(SCC(N)=O)n2CCc2ccccc2)c1,> 195 µM (not active)
8,O=C(Cn1[nH]c(=O)c2ccccc2c1=O)OCC(=O)c1ccccc1Cl,> 195 µM (not active)
9,Cc1ccccc1NC(=O)COC(=O)c1ccc(S(C)(=O)=O)c([N+](=O)[O-])c1,6.14 µM (active)
10,Cc1ccc(OC(=O)c2ccc3nc(C)sc3c2)cc1,0.737 µM (active)
11,CCOC(=O)C1(CC2CCCCO2)CCN(Cc2nc3ccccc3[nH]2)CC1 (stereo unspecified),> 195 µM (not active)
12,CC(C)N1CCC(N2CCN(C3CCCC3)CC2CCO)CC1 (stereo unspecified),> 195 µM (not active)
13,CCN(C(=O)c1ccc2c(SCC(=O)O)c3c(nc2c1)CCC3)c1cc(Cl)ccc1OC,> 195 µM (not active)
14,O=C(O)c1ccn(Cn2cnc3ccccc32)n1,> 195 µM (not active)

# Test system: Streptococcus
# Assay: GAS UMAA2166 growth inhibition – luminescence, BacTiterGlo, counter-screen for streptokinase expression inhibitor project, dose response (AID 1915);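 also: potency for reduction of bacterial viability or growth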
# Type: functional, organism-based
# Conditions: Streptococcus
row,SMILES,EC50
1,Cc1ccc2[nH]c(SCC(=O)c3ccc(Cl)s3)nc2c1,> 150 µM (not active)
2,CCC(=O)N1N/C(=C2/C(=O)NC(=O)N(CCc3ccccc3)C2=O)CC1c1ccc(OC)c(OC)c1 (stereo unspecified),26.4 µM (active)

# Target: T1, Heat shock factor protein 1
# Assay: enhancement of HSF1-driven luciferase signal – cell-based, NIH3T3, luminescence, dose retest, confirmation (AID 435004);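 also: stress induced by proteasome inhibitor MG132 added 30 min after compound; luciferase reporter driven by HSF1 response element in NIH3T3 cells; actives raise luminescence as potentiators of the MG132 stress response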
# Type: functional
# Conditions: not given
row,SMILES,EC50
1,C=CCn1c(=O)c2c3c(sc2n2c(Nc4ccccc4)nnc12)CCCC3,> 260 µM (inactive)
2,CC(=O)c1ccccc1NC(=O)C1C2CCC(O2)C1C(=O)O (stereo unspecified),> 260 µM (inactive)
3,O=C(CSCc1ccc(Br)cc1)N1CCCC1,108 µM (active)
4,COC(=O)c1ccccc1N=C(S)N(Cc1ccc2c(c1)OCO2)Cc1cc2ccc(OC)cc2nc1O,> 260 µM (inactive)
5,O=C(CN1C(=O)NC2(CCCc3ccccc32)C1=O)Nc1cccc(S(=O)(=O)N2CCCCC2)c1 (stereo unspecified),> 260 µM (inactive)
6,CCOc1cccc(C2NCc3ccccc3-n3cccc32)c1O (stereo unspecified),> 260 µM (inactive)
7,O=C(NCc1cc(C(F)(F)F)cc(C(F)(F)F)c1)C1CC(c2cccc([N+](=O)[O-])c2)=NO1 (stereo unspecified),38.4 µM (active)
8,COCCN(CCOC)c1nc(-c2ccc(C)cc2)nc2ccccc12,> 260 µM (inactive)
9,Cc1ccccc1N1CCN(S(=O)(=O)Cc2ccccc2)CC1,> 260 µM (inactive)
10,O=[N+]([O-])c1cccc(-c2ncc3ccccn23)c1,> 260 µM (inactive)
11,OCC1(CCCc2ccccc2)CCN(C2CCSCC2)CC1,> 260 µM (inactive)
12,CC12CCC3C(CC=C4CC(O)CCC43C)C1C/C(=C\N1CCCC1)C2=O (stereo unspecified),> 260 µM (inactive)

# Target: Cytochrome P450 2C19 (Homo sapiens, UniProt P33261)
# Sequence (P33261 whole entry): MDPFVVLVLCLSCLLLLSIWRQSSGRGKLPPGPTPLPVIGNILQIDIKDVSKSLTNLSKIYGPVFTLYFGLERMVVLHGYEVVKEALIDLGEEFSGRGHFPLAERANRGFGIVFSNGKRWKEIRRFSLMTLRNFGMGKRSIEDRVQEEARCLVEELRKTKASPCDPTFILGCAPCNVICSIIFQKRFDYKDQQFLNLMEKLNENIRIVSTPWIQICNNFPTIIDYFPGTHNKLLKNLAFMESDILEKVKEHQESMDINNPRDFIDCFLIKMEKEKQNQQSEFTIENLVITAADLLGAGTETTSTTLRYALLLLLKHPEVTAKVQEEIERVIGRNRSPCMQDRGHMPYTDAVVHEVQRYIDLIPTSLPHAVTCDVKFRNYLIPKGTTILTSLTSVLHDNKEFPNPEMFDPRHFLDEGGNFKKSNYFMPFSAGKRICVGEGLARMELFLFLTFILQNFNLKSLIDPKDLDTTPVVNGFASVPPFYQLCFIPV
# Assay: Cytochrome panel assay with activity outcomes. Panel member name: p450-cyp2c19 Compounds with AC50 equal or less than 10 uM are considered active
# Type: functional
# Conditions: read-out: AC50
row,SMILES,AC50
1,CCc1c2c(nc3c(C(C)C)cccc13)-c1cccc(=O)n1C2,20 µM (inconclusive)
2,Cc1ccc2nc(-c3cccnc3)oc2c1,28.2 µM (inconclusive)

# Target: T2, Corticotropin-releasing factor receptor 2/Corticotropin-releasing factor-binding protein (Homo sapiens, UniProt P24387+Q13324)
# T2 sequence (Q13324 whole entry): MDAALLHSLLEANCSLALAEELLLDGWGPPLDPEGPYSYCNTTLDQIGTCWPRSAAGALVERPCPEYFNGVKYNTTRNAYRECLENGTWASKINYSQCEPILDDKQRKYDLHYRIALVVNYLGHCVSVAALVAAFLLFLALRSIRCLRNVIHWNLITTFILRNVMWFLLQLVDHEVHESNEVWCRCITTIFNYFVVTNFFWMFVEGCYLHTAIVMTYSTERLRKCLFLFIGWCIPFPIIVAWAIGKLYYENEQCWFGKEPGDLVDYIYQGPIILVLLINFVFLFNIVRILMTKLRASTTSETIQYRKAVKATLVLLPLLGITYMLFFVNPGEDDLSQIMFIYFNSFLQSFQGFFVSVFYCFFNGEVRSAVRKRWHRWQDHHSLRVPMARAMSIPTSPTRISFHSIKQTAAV
# T2 sequence (P24387 whole entry): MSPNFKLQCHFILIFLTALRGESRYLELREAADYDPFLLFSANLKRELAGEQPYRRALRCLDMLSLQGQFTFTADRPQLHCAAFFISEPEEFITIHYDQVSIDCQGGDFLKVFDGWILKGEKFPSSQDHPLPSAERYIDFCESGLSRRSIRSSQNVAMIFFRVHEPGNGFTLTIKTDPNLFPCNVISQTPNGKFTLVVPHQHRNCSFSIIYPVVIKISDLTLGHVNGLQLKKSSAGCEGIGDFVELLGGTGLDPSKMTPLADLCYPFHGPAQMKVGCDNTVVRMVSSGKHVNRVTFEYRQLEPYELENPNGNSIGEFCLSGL
# Assay: activators of CRF receptor 2 with binding protein – uHTS hits, confirmation (AID 602473)
# Type: functional
# Conditions: read-out: EC50_Mean
row,SMILES,EC50
1,Cc1c(N=C2N=C(NC(=O)c3ccc(F)cc3)c3ccccc32)c(=O)n(-c2ccccc2)n1C,15.6 µM (active)
2,Cn1c(N)c(-c2ccccc2)c2ccc([N+](=O)[O-])cc2c1=O,4.5 µM (active)

# Target: T3, Rac GTPase-activating protein 1 (Homo sapiens, UniProt Q9H0H5)
# T3 sequence (Q9H0H5 whole entry): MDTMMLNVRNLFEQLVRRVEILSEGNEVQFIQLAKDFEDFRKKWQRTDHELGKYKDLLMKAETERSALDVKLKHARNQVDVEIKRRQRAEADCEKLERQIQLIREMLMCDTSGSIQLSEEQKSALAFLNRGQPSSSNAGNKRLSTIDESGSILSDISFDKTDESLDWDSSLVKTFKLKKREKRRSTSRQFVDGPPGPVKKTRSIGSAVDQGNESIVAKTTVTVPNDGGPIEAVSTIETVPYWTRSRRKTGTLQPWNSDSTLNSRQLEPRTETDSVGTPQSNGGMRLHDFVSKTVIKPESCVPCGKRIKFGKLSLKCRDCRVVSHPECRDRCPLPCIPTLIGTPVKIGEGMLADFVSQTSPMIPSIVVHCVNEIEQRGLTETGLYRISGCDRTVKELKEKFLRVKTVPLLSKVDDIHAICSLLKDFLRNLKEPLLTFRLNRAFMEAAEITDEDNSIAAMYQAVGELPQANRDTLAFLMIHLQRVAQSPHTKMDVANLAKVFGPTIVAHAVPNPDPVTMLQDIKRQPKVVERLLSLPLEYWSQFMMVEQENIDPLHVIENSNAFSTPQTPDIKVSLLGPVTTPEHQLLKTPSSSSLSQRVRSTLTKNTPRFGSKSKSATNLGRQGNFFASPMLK
# Assay: blockers of MgcRacGAP-driven Rac1 GTP hydrolysis – biochemical, ADP Hunter fluorescence, primary and confirmatory, confirmation (AID 624330)
# Type: functional
# Conditions: not given
row,SMILES,IC50
1,NC(S)=NNc1ccnc2cc(Cl)ccc12,110 µM (active)
2,COc1ccc(N2CCN(C(CNS(=O)(=O)c3cccs3)c3cccnc3)CC2)cc1 (stereo unspecified),120 µM (active)
3,O=C(c1ccc(Cl)c(S(=O)(=O)N2CCCCCC2)c1)N1CCN(c2ccc(O)cc2)CC1,33.7 µM (active)
4,COc1cc(/C=C2\SC(=S)N(NC(=O)c3ccc(O)cc3)C2=O)ccc1O,59 µM (active)
5,Brc1ccccc1OCCCCCN1CCOCC1,146 µM (active)
6,CCN(CC)CCCNCC(=O)Nc1cc(C)on1,99.4 µM (active)
7,Cc1nc2ccc(C(=O)Nc3ccc(N(C)C)cc3)cc2s1,39.3 µM (active)
8,CCOc1cc(C=NNC(=O)CCCC(=O)NN=Cc2ccc(O)c(OCC)c2)ccc1O,50.4 µM (active)
9,Cn1cccc1/C=N/N1CCN(Cc2ccccc2Cl)CC1,82.1 µM (active)
10,CCOc1cc(/C=N/NC(=O)c2cc(C3CC3)[nH]n2)ccc1O,54.9 µM (active)
11,O=C(CNc1ccc2c(c1)OCO2)N/N=C\c1ccccc1Cl,114 µM (active)
12,COc1ccc(O/C(=N\S(=O)(=O)c2ccccc2)c2ccccc2)cc1,45.5 µM (active)

# Target: Paired box protein Pax-8 (Homo sapiens, UniProt Q06710)
# Sequence (Q06710 whole entry): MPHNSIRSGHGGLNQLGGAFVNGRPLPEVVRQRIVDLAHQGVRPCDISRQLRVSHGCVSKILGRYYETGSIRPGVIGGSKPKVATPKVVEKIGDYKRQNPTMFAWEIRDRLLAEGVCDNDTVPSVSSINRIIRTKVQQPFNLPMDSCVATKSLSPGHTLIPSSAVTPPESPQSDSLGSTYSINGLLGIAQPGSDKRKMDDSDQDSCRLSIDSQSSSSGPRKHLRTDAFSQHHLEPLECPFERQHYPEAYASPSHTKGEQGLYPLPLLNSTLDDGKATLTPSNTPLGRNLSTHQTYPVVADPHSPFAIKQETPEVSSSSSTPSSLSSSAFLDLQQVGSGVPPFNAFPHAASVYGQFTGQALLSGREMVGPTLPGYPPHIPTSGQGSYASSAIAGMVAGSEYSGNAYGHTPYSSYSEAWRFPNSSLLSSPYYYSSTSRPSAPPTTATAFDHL
# Assay: PAX8 transcriptional activity inhibition in RMG-I – RMG-I cells, luciferase, cherry-pick, dose response (AID 687027);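 also: luciferase reporter driven by Pax8 target thyroperoxidase promoter measured by SteadyGlo luminescence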
# Type: functional, cell-based
# Conditions: not given
row,SMILES,AC50
1,CC(C)(C)OC(=O)NCCCC[C@H](NC(=O)c1[nH]cnc1C(=O)N[C@@H](Cc1ccccc1)C(=O)OC(C)(C)C)C(=O)OC(C)(C)C,7.6 µM (active)
2,COc1cc(CNc2ncnc3c2ncn3[C@H]2CN(Cc3ccc(-c4ccccc4)cc3)C[C@@H](CO)O2)cc(OC)c1OC,7.36 µM (active)
3,C[C@@H]1CN([C@H](C)CO)C(=O)Cc2cc(NC(=O)Nc3ccc(F)cc3)ccc2O[C@H]1CN(C)C(=O)Nc1ccc(C(F)(F)F)cc1,11.4 µM (active)
4,O=C(Cc1ccccn1)N1CCCCN2[C@@H](CO)[C@@H](c3ccc(-c4ccc(F)cc4)cc3)[C@@H]2C1,22.6 µM (active)
5,COc1cc(/C=N\NC(=O)c2ccc(-c3ccccc3)cc2)cc(OC)c1OC(C)=O,0.728 µM (active)

# Target: Cytochrome P450 2D6 (Homo sapiens, UniProt P10635);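 also: CYP2D6 member of a cytochrome P450 panel assay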
# Sequence (P10635 whole entry): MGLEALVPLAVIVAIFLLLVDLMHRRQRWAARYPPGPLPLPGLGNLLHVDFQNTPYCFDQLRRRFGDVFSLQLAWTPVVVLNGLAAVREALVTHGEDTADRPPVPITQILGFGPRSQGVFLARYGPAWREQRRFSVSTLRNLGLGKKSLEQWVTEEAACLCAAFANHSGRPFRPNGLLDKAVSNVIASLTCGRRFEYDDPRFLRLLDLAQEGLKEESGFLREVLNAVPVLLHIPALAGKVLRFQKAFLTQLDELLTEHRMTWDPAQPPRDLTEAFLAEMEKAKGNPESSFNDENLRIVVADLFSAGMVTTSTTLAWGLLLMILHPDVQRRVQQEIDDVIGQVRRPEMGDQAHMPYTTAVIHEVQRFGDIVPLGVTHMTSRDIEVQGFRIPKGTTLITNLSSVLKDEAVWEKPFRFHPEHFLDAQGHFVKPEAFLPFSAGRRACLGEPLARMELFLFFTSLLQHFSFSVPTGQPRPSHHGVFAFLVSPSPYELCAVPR
# Conditions: not given
row,SMILES,AC50
1,COCCNc1ccnc(-c2ccccc2CN(C)C)n1,39.8 µM (inconclusive)
2,Cc1ccc(N(C(=O)Cn2nnc(-c3ccc(F)cc3)n2)C(CC(C)C)C(=O)NCC2CCCO2)cc1 (stereo unspecified),25.1 µM (inconclusive)
3,Cc1nc2c(C(=O)N3CCOCC3)cnn2c(C)c1Cc1ccc(Cl)cc1,25.1 µM (inconclusive)
4,CS(=O)(=O)Nc1cccc(-c2cncnc2NCc2cccnc2)c1,39.8 µM (inconclusive)
5,Cn1cccc1C(=O)N1CCC[C@@]2(CCN(Cc3ccc(C#N)cc3)C2)C1,20 µM (inconclusive)
6,O[C@]1(c2ccccc2)c2ccccc2N=C2NCCN21,2.51 µM (inconclusive)
7,CCc1c2c(nc3c(C(C)C)cccc13)-c1cccc(=O)n1C2,39.8 µM (inconclusive)
8,CCCn1nc(C(=O)NCC(C)(C)N2CCOCC2)c2ccccc2c1=O,3.98 µM (inconclusive)
9,Cc1ccc2nc(-c3cccnc3)oc2c1,5.62 µM (inconclusive)

# Target: Cytochrome P450 2C9 (Homo sapiens, UniProt P11712)
# Sequence (P11712 whole entry): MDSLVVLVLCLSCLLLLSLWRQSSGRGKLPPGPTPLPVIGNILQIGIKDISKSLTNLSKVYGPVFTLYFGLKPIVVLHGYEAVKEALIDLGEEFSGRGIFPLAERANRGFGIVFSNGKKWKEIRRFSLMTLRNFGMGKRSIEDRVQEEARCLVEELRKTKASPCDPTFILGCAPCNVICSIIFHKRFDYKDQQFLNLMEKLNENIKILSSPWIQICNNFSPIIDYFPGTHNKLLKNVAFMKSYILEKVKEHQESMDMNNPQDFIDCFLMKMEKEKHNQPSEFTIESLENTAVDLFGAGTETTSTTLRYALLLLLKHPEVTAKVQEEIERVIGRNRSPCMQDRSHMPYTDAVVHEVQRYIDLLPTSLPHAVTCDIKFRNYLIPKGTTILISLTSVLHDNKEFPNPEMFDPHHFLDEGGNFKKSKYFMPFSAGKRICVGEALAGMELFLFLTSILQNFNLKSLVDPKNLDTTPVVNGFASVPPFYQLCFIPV
# Conditions: not given
row,SMILES,AC50
1,CCCn1nc(C(=O)NCC(C)(C)N2CCOCC2)c2ccccc2c1=O,39.8 µM (inconclusive)
